“Also recorded” adds a separate entry of the source. Counter-ions that a name gives are not always drawn. Like-named read-outs stand apart in the source and are kept apart here.
Key:
[1] = system: temporary middle cerebral artery occlusion; conditions: cited from earlier work
[2] = system: permanent middle cerebral artery occlusion; conditions: cited from earlier work
[3] = biological target: T1, NCCa-ATP channel (Rattus norvegicus, UniProt Q09429); assay: Patch clamp of NCCa-ATP channel in freshly isolated native reactive astrocytes; assay type: cell-based; conditions: for EC50: read-out: [ATP]1 EC50 (um)
T1 construct: endogenous in cells; host or cells: freshly isolated native reactive astrocytes (NRA/R1 astrocytes) from the hypoxic inner zone of the gliotic capsule in brain
Description: The NCCa-ATP channel is a 35 pS cation channel that conducts all inorganic monovalent cations (Na^+, K^+, Cs^+, Li^+, Rb^+), but is impermeable to Ca^2+ and Mg^2+ (Chen and Simard, 2001). […] Studies using a variety of organic monovalent cations indicate that the channel has an equivalent pore radius of 0.41 nm.
The NCCa-ATP channel is believed to be composed of pore-forming and regulatory subunits. The regulatory subunit is sulfonylurea receptor 1 (SUR1), the same as that for KATP channels in pancreatic β cells (Chen et al., 2003), and so NCCa-ATP and pancreatic KATP channels have pharmacological profiles that resemble each other closely. […] Knockdown of SUR1 using antisense-oligodeoxynucleotide reduces SUR1 expression (Simard et al., 2006) and prevents expression of functional NCCa-ATP channels.

[4] = biological target: T1, NCCa-ATP channel; conditions: cited from earlier work
[5] = biological target: T2, SUR1-regulated NCCa-ATP channel (Homo sapiens, UniProt Q09428); assay: Patch clamp of cultured human aortic endothelial cells after hypoxia; assay type: cell-based
T2 construct: cultured endothelial cells from human aorta (ScienCell, SanDiego CA) were also studied; host or cells: human aortic endothelial cells (HAEC) cultured under hypoxia (1% O2)
T2 sequence (Q09428 whole entry): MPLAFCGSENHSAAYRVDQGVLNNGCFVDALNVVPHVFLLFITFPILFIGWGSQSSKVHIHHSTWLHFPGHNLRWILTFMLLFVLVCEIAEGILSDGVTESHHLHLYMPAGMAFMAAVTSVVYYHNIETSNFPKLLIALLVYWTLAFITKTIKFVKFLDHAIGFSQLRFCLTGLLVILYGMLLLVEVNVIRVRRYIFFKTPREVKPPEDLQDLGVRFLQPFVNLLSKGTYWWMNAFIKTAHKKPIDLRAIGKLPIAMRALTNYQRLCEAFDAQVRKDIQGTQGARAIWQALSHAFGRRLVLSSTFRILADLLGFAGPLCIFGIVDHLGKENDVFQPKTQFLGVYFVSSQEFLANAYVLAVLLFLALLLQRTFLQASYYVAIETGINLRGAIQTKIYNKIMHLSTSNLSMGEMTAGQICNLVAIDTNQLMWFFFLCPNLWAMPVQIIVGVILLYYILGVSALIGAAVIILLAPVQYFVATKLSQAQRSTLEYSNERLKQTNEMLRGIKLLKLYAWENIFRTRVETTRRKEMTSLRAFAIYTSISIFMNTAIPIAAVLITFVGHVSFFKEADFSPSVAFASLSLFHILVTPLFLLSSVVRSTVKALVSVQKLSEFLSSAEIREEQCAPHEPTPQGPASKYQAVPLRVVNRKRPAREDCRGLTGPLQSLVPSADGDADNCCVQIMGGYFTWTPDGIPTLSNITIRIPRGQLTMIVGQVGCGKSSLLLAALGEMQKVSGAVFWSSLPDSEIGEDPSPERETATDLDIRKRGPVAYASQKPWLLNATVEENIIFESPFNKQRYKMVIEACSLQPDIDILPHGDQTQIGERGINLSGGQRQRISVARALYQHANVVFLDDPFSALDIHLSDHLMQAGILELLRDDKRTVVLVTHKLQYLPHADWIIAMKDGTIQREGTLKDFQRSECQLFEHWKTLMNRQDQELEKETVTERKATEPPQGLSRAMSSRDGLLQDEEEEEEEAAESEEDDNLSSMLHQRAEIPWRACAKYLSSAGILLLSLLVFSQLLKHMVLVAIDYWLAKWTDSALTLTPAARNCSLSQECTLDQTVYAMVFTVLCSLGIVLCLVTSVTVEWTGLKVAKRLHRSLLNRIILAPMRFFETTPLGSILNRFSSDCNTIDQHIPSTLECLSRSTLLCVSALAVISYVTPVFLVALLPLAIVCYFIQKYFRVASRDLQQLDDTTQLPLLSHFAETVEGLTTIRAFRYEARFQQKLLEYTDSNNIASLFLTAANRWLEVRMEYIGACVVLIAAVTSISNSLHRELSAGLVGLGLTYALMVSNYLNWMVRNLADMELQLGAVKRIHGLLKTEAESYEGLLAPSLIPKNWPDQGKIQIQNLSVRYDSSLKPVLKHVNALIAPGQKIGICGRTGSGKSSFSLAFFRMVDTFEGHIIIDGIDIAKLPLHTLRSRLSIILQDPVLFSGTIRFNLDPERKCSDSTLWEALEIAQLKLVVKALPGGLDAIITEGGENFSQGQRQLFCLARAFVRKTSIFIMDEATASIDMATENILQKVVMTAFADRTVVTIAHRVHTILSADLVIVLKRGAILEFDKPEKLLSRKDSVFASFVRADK
T2 sequence (Q8TD43 whole entry partner): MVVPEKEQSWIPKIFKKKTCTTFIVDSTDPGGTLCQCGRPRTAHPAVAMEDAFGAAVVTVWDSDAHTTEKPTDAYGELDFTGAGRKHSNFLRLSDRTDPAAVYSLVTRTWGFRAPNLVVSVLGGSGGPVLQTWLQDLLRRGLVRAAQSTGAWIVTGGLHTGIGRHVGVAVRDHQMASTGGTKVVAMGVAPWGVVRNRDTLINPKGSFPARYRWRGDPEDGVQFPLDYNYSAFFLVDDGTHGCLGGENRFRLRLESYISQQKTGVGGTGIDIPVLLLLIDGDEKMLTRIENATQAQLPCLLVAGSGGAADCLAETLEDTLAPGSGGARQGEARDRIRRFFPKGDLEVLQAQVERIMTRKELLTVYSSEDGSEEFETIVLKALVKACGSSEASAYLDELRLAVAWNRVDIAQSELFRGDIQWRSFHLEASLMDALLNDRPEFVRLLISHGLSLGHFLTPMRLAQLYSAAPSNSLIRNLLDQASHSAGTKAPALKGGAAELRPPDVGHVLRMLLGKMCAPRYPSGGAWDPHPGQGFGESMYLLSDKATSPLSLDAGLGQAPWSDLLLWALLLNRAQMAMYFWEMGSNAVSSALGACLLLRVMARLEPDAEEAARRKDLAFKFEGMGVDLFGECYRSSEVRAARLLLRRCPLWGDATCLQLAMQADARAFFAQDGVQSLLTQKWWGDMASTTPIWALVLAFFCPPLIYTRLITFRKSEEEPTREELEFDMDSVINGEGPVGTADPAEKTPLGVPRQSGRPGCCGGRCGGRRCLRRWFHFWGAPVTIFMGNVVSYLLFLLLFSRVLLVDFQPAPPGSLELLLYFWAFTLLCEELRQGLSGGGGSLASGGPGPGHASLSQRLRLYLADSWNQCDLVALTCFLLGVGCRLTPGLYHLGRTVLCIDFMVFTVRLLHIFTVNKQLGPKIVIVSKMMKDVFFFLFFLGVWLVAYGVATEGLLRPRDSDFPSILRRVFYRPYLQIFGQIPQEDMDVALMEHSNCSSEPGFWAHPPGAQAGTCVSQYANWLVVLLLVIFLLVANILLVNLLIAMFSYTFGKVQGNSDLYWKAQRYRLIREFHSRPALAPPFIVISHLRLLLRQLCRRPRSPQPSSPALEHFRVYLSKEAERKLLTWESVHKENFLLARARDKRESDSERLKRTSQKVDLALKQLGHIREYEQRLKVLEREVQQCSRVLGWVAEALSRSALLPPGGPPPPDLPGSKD
Description: In addition to studying freshly isolated capillary endothelial cells from rat spinal cord, cultured endothelial cells from human aorta (ScienCell, SanDiego CA) were also studied. The purpose with these studies was to investigate whether hypoxia/ischemia can lead to up-regulation of the SUR1-regulated NCCa-ATP channels in endothelial cells, a finding that was previously reported for astrocytes and neurons (Chen et al., 2003; Simard et al., 2006), but not endothelial cells. Endothelial cells were cultured under normoxic (room air) and hypoxic (1% 02) conditions. Cells cultured under both conditions were immunolabeled for SUR1, the regulatory subunit of both KATP and NCCa-ATP channels.
The diazoxide-induced current (difference current in FIG. 15A) reversed at E(K) consistent with an SUR1-regulated KATP channel current.
Inside-out patches from cells maintained under hypoxic conditions were also studied. […]
Patch clamp of endothelial cells was performed using a nystatin-perforated patch technique, to maintain the metabolic integrity of the cells. The identity of the activated channel can be assessed by measurement of the “reversal potential”, the potential at which an ion channel current reverses from inward to outward. […]

[6] = biological target: receptor-mediated Ca2+ entry; conditions: cited from earlier work
[7] = system: global cerebral ischemia; conditions: in vivo; cited from earlier work
[8] = system: freshly isolated reactive astrocytes; conditions: cited from earlier work; for Cell blebbing: glibenclamide with 1 mM Na azide, diazoxide alone without ATP depletion
[9] = system: isolated retina of chick embryo; conditions: glucose/oxygen deprivation or excitotoxic conditions; cited from earlier work
[10] = system: large MCA stroke associated with malignant cerebral edema; conditions: cited from earlier work
[11] = system: recombinant MMP; assay: Zymography of gelatinase activity of recombinant MMP; assay type: biochemical; conditions: glibenclamide 10 μM; MMP-inhibitor II 300 nM
Description: In stroke, hemorrhagic conversion has been attributed to activation of matrix metalloproteinases (MMP) (Gidday et al., 2005; Justicia et al., 2003; Lorenzl et al., 2003; Romanic et al., 1998). […] This was studied directly using zymography of recombinant MMPs.

[12] = system: freshly isolated reactive astrocytes; conditions: 1 mM Na azide; 1 μM glibenclamide; cited from earlier work
[13] = system: cervical spinal cord contusion injury; assay: Rat cervical hemi-cord contusion spinal cord injury model; assay type: in vivo
Description: The cervical contusion SCI model that is used is that of Soblosky et al. (2001). Adult female Long-Evans rats are anesthetized (Ketamine and Xylazine) and a hemilaminectomy is made at C4-5 to expose the dura. A hemi-cervical spinal cord contusion is created using a blunt force impactor (see details below “The model of contusion SCI”).
To generate the injury for the data shown here, the impactor was activated using a 10-gm weight dropped from 2.5 cm.
Animals were sacrificed at ¾ hr and 24 hr after contusion SCI (n=5 rats per group), they were perfused with heparinized saline to remove intravascular blood, and 5-mm segments of cord encompassing the lesion were homogenized and processed using Drabkin's reagent to convert hemoglobin to cyanomethemoglobin for spectrophotometric measurements (Choudhri et al., 1997).
Animals underwent the same SCI as above, and immediately after, were implanted with mini-osmotic pumps (Alzet 2002, 14 day pump, […]; Durect Corporation, Cupertino, CA) that delivered either saline or drug s.q.
Spinal cords were examined 24 hr after SCI. […] In other rats, […] sections of cord were harvested that encompassed the contusion site and we quantified the amount of blood present in tissues after removal of intravascular blood by perfusion at time of euthanasia (n=5-6 rats per group).
As previously described (Gensel et al., 2006), rats were placed in a glass cylinder to which they had not been previously exposed. A peanut butter treat was placed 8 inches above the floor, and the number of seconds spent with both front paws elevated above shoulder-height was counted during a 3-min period of observation.

[14] = system: NCCa-ATP channels; assay: Nystatin-perforated patch clamp of hypoxic endothelial cells, current activated by Na+ azide; assay type: cell-based, human; conditions: 1 μM; hypoxic conditions
Procedure: Patch clamp of endothelial cells was performed using a nystatin-perforated patch technique, to maintain the metabolic integrity of the cells. The identity of the activated channel can be assessed by measurement of the “reversal potential”, the potential at which an ion channel current reverses from inward to outward. With physiologically relevant concentrations of ions intracellularly and extracellularly (high potassium inside, high sodium outside), the reversal potential can unambiguously distinguish between a K^+ channel current such as KATP, which reverses negative to −50 mV and a non-selective cation channel current such as NCCa-ATP, which reverses near 0 mV.
Channel activation was also studied upon induction by Na^+ azide, a […] that depletes cellular ATP (Chen and Simard, 2001).

[15] = system: stroke induced by thromboemboli; conditions: constant infusion 75-200 ng/h; cited from earlier work
[16] = system: transient focal ischemia; conditions: pre- or post-ischemic administration; cited from earlier work
[17] = system: permanent MCAO; conditions: given 30 min after initiation of permanent MCAO; cited from earlier work
[18] = after 6 h of vascular occlusion
[19] = Membrane Preparation derived from freshly isolated native reactive astrocytes

## COc1cc2c(cc1OC)C(C(C(=O)N(CCc1ccc(OC)c(OC)c1OC)CCc1ccc(OC)c(OC)c1OC)c1ccccc1)=NCC2 (racemic) [pinokalant, (R,S)-(3,4-dihydro-6,7-dimethoxy-isoquinoline-1-yl)-2-phenyl-N,N-di[2-(2,3,4-trimethoxyphenyl)ethyl]-acetamide]
[1]; 4 h after MCAO
  DWI-derived infarct volume: significantly smaller
[1]; at 24 h
  Neurological scores: significantly better
[1]; postmortem
  TTC-derived infarct volume: significantly attenuated
[2]; [18]
  Blood flow: significantly higher
  Reduction of the volume of ATP-depleted and morphologically injured tissue (infarct core): 60-70%
[2]; initial 6 h of vascular occlusion, untreated increased by approximately 50%
  Decrease of ADC lesion volume: approximately 20%

## Nc1ncnc2c1ncn2[C@@H]1O[C@H](COP(=O)(O)OP(=O)(O)O)[C@@H](O)[C@H]1O [ADP]
[3]; [19]
  Effect on channel: No channel effect
[3]; Reactive Astrocytes
  Effect on channel: No channel effect
[4]
  Effect on channel opening: unaffected

## Nc1ncnc2c1ncn2[C@@H]1O[C@H](COP(=O)(O)O)[C@@H](O)[C@H]1O [AMP]
[3]; [19]
  Effect on channel: No channel effect
[3]; Reactive Astrocytes
  Effect on channel: No channel effect
[4]
  Effect on channel opening: unaffected

## Nc1ncnc2c1ncn2[C@@H]1O[C@H](COP(=O)(O)OP(=O)(O)OP(=O)(O)O)[C@@H](O)[C@H]1O [ATP]
[3]; [19]
  EC50: 790 nM
[3]; Reactive Astrocytes
  EC50: 790 nM
[5]; 20 μM in the bath, hypoxic cells, Cs+ as cation
  Single channel openings in inside-out patches: inhibited
[4]; read-out: Block of channel opening, EC50
  EC50: 790 nM

## COc1ccc(CCCOC(Cn2ccnc2)c2ccc(OC)cc2)cc1 (stereo not drawn) [SKF 96365, 1-(beta-[3-(4-methoxy-phenyl)propoxy]-4-methoxyphenethyl)-1H-imidazole hydrochloride]
[6]
  IC50: ~10000 nM

## COc1cc(CNC(=O)CCCC/C=C/C(C)C)ccc1O [capsaicin]
[7]
  Electroencephalographic changes, hyperlocomotion and memory impairment induced by global ischemia: antagonize

## Oc1cc2c(cc1O)CN(C(=S)NCCc1ccc(Cl)cc1)CCC2 [capsazepine]
[7]
  Effect on rimonabant-induced and capsaicin-induced neuroprotective effects: reversed

## CC1=NS(=O)(=O)c2cc(Cl)ccc2N1 [diazoxide]
[8]
  Cell blebbing: reproduced
[5]; cells maintained under hypoxic conditions
  Membrane current, reversing near 0 mV: significantly increased; also recorded: activated an ohmic current
[4]
  Block or opening of the NCCa-ATP channel: opened
[4]; in the presence of ATP
  Channel opening in the presence of ATP: increased

## O=C(O)c1ccccc1Nc1cccc(C(F)(F)F)c1 [flufenamic acid]
[9]
  Protection of retina against ischemic or excitotoxic insult: protected

## COc1ccc(Cl)cc1C(=O)NCCc1ccc(S(=O)(=O)NC(=O)NC2CCCCC2)cc1 [glibenclamide]
[10]; constant infusion 75-200 ng/h
  Reduction of mortality: by half
[10]; control rats 68%, n=29 in each group
  7-day mortality: 28%
[10]; low-dose, post-ischemic
  Reduction of cerebral edema / ionic edema (excess water): reduced by half
[8]; cells exposed to Na+ azide to deplete ATP
  Membrane depolarization: blocks
[8]
  Cell blebbing: significantly reduces; also recorded: completely prevented; also recorded: blocked
[11]
  Gelatinase activity: the same
[12]
  Necrotic cell death induced by Na azide: significantly reduced; also recorded: significant reduced
[13]; 24 hr after SCI, 75 ng/hr s.q.
  Hemorrhage at the contusion site: significantly reduced; also recorded: less prominent
[13]; 24 hr after SCI, 75 ng/hr s.q., vehicle 1.9±0.02
  Blood in 6-mm cord segment encompassing the contusion: 0.9 ± 0.2 µL
[13]; 24 hr after injury, 3-min observation
  Neurological function (rearing behavior): significant neurological functional improvement; also recorded: significantly better; also recorded: improves neurological function
[14]
  Ohmic current activated by Na+ azide-induced ATP depletion: blocked
[15]
  Reduction of lesion volume / stroke size: reduced by half

## Cc1ccc(Cl)c(Nc2ccccc2C(=O)O)c1Cl [meclofenamic acid]
[9]
  Protection of retina against ischemic or excitotoxic insult: protected

## Cc1cccc(Nc2ccccc2C(=O)O)c1C [mefenamic acid]
[9]
  Protection of retina against ischemic or excitotoxic insult: protected
[16]
  Neuroprotection (necrosis in cortex and subcortical structures): no neuroprotection

## CCOc1cc(CC(=O)N[C@@H](CC(C)C)c2ccccc2N2CCCCC2)ccc1C(=O)O [repaglinide]
[4]
  Block or opening of the NCCa-ATP channel: blocked

## Cc1c(C(=O)NN2CCCCC2)nn(-c2ccc(Cl)cc2Cl)c1-c1ccc(Cl)cc1 [rimonabant]
[7]
  Electroencephalographic changes, hyperlocomotion and memory impairment induced by global ischemia: antagonize
[17]
  Reduction of infarct volume: ~40%
